Measurements from BindingDB's records for doi:10.1016/S0960-894X(96)00483-0 (1996).

Target: Kynureninase (Pseudomonas fluorescens) (UniProt P83788)
Assay: Compound was evaluated for its binding affinity against kynureninase isolated from Pseudomonas fluorescence

Kynureninase (Pseudomonas fluorescens), sequence (P83788 whole entry, looked up): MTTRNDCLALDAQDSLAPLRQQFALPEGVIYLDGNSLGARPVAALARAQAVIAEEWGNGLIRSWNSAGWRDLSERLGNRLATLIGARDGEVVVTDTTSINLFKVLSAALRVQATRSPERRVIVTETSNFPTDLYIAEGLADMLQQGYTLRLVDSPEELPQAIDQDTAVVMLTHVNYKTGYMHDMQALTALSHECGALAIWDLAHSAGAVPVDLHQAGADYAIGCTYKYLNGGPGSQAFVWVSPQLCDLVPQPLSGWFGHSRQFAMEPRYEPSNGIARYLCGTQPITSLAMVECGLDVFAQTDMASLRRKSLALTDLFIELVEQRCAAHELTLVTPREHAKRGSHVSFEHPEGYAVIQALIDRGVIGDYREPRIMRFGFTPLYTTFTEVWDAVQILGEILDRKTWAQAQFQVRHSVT

Ki [µM] | Structure (SMILES)
4.28 | Nc1ccccc1C(=O)C[C@H](N)C(=O)O [2-ammonio-4-(2-ammoniophenyl)-4-oxo-(2S)-butanoate]
8.8 | COC(=O)[C@H](CP(=O)(OC)c1ccccc1)NC(=O)OCc1ccccc1 (stereo partly drawn) [(R)-2-Benzyloxycarbonylamino-3-(methoxy-phenyl-phosphinoyl)-propionic acid methyl ester]
23.4 | N[C@@H](CC(=O)c1ccccc1)C(=O)O [2-ammonio-4-oxo-4-phenyl-(2S)-butanoate]
880 | COP(=O)(C[C@H](NC(=O)OCc1ccccc1)C(=O)O)c1ccccc1 (stereo partly drawn) [(R)-2-Benzyloxycarbonylamino-3-(methoxy-phenyl-phosphinoyl)-propionic acid]
